Assay results taken from patent publication US20240180900A1, “COMPOUNDS AND METHODS FOR THE TARGETED DEGRADATION OF ANDROGEN RECEPTOR” (Arvinas Operations, Inc., priority 2022, published 2024).

Columns and labels:
AR [1] = molecular target: T1, AR (Homo sapiens, UniProt P10275); assay: selectivity screening panel: AR binding; conditions: 1 μM
T1 sequence (P10275 1-920): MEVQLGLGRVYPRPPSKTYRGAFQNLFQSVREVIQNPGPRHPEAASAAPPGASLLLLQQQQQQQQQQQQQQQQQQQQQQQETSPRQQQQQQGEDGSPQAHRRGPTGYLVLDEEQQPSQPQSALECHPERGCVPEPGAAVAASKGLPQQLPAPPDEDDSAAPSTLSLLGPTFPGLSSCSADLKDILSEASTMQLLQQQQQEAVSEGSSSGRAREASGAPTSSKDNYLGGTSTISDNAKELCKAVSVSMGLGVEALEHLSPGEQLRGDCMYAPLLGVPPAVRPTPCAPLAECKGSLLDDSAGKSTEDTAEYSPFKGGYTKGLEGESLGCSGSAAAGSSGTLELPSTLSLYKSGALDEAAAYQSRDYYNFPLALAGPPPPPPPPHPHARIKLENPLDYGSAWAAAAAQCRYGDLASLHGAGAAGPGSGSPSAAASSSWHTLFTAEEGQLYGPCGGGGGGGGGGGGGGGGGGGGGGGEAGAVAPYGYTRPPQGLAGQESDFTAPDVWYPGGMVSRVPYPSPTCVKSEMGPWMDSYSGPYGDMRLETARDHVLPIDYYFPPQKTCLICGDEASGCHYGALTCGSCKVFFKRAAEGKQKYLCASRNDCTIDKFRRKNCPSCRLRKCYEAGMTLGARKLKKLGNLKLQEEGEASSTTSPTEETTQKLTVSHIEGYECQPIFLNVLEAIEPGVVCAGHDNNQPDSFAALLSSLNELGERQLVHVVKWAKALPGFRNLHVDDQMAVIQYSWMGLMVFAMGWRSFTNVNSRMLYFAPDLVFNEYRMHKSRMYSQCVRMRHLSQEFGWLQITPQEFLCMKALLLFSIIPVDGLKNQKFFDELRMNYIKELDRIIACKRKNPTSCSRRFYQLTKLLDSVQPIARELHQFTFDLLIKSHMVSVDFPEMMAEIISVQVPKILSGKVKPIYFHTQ
Method: Compound A was tested at 1 μM in a screening study to assess the interaction of Compound A with a panel of 44 targets, including receptors, ion channels, transporters, and enzymes. Any effect greater than 50% of the positive control for a target was considered to represent an interaction of the test compound with the target.

AR T878A/S889G = molecular target: T2, AR T878A/S889G (Homo sapiens, UniProt P10275, S889G/T878A); assay: AR degradation in T-Rex-293 cell line, T878A/S889G; assay type: cell-based; conditions: T-Rex-293, ELISA
T2 construct: expressed in transfected cells; host or cells: T-REx-293
Source text: (§1) FIG. 3 is a graph showing Compound A's ability to degrade clinically relevant mutated forms AR.
(§2) To assess the ability of Compound A to degrade variants of the AR, vectors expressing wild-type AR or mutant AR proteins harboring clinically observed mutations in the ligand binding domain (13 with single amino acid changes or 4 with 2 amino acid changes) (Azad A. A., Volik S. V., Wyatt A. W., et al. Androgen receptor gene aberrations in circulating cell-free DNA: biomarkers of therapeutic resistance in castration-resistant prostate cancer. Clin Cancer Res. 2015; 21:2315-2324; Robinson D., Van Allen E. M., Wu Y. M., et al. Integrative clinical genomics of advanced prostate cancer. Cell. 2015; 161:1215-1228; Ledet E. M., Lilly M. B., Sonpavde G., et al. Comprehensive analysis of AR alterations in circulating tumor DNA from patients with advanced prostate cancer. Oncologist.

VCaP cells = assay: VCaP cell proliferation in a high androgen environment (R1881); assay type: cell-based, human; conditions: Compound A 300 nM vs enzalutamide 1,000 nM, R1881 0.01 to 1 nM, 5 days
Method: Cell proliferation was determined using the CellTiter Glo® assay.

AR S889G = molecular target: T3, AR S889G (Homo sapiens, UniProt P10275, S889G); assay: AR degradation in T-Rex-293 cell line, S889G; assay type: cell-based; conditions: T-Rex-293, ELISA
T3 construct: expressed in transfected cells; host or cells: T-REx-293
Source text: as §1, §2

AR [2] = molecular target: T1, AR; assay: poly-ubiquitination assay; assay type: cell-based; conditions: with Compound A treatment
AR [3] = molecular target: T1, AR; assay: AR degradation in castrated mice bearing VCaP xenografts (western blotting); assay type: in vivo, mouse; set-up: from tissue; host or cells: VCaP xenograft tumour tissue from castrated CB17/SCID mice
Method: Tumors were harvested 16 hours post-dose and tumor AR level was established by western blotting. Antibody recognizing human mitochondria specific antibody (Mito.C) was employed as a loading control. The quantitation of AR levels from the western blot is shown (lower panel).
Castration eliminates testosterone produced by the testes. Upon castration, prostate tumor cells implanted in the mouse start to produce testosterone on their own, enabling their growth. The effect of Compound A on AR degradation in vivo was evaluated in castrated mice bearing VCaP xenografts. To recapitulate human CRPC, when the implanted tumors reached a volume of approximately 100 mm^3, the mice were surgically castrated. Three weeks after castration, mice were administered a single PO dose of Compound A at 10, 3, 1, 0.3, 0.1, 0.03, or 0 (vehicle) mg/kg via gavage. Sixteen hours after treatment, the tumor tissues were collected, and lysates were prepared to assess AR expression by western blotting. At Compound A doses of 10, 3, 1, 0.3, 0.1, and 0.03 mg/kg, AR was reduced on average by 96%, 91%, 81%, 73%, -5%, and 14%, respectively (FIG. 11), compared to vehicle control.

PSA = assay: plasma PSA levels by ELISA, intact VCaP tumor model; assay type: in vivo, mouse
Source text: Plasma PSA levels are used as a clinical biomarker of disease progression and are thought to be closely related with the degree of AR activity (Catalona, W. J., Richie, J. P., Ahmann, F. R., et al. Comparison of digital rectal examination and serum prostate specific antigen in the early detection of prostate cancer: results of a multicenter clinical trial of 6,630 men. The Journal of Urology. 1994; 151(5):1283-1290. Cleutjens, K. B., van Eekelen, C. C., van der Korput, H. A., et al. Two androgen response regions cooperate in steroid hormone regulated activity of the prostate-specific antigen promoter. J Biol Chem. 1996; 271(11):6379-6388.). Plasma PSA levels upon Compound A treatment were evaluated by ELISA in samples from the intact VCaP tumor model.

AR M750V = molecular target: T4, AR M750V (Homo sapiens, UniProt P10275, M750V); assay: AR degradation in T-Rex-293 cell line, M750V; assay type: cell-based; conditions: T-Rex-293, ELISA
T4 construct: expressed in transfected cells; host or cells: T-REx-293
Source text: as §1, §2

T2 sequence (P10275 whole entry T878A/S889G): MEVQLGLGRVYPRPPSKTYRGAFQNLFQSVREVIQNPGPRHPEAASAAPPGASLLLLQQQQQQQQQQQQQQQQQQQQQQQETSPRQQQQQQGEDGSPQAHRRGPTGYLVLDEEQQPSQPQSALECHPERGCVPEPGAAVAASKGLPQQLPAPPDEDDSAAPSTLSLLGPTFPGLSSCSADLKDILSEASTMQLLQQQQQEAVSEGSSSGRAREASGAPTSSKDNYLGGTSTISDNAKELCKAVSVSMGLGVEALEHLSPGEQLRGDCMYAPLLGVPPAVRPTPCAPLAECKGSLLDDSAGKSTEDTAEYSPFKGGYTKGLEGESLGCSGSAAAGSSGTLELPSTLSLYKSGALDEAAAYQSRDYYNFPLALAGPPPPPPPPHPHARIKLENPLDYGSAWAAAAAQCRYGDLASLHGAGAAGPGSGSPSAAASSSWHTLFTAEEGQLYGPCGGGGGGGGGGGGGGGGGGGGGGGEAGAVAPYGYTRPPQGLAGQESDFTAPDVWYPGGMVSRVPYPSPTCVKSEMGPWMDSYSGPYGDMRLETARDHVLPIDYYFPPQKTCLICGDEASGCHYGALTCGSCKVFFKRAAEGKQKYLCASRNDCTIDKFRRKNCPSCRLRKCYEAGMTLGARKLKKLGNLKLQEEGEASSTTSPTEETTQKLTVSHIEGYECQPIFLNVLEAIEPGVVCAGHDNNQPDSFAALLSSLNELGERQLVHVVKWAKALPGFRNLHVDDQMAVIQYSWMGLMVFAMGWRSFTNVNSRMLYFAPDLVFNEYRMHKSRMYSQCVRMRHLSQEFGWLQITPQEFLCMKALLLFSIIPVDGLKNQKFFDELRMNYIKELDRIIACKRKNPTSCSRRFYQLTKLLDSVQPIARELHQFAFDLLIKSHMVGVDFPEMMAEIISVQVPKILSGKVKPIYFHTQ
T4 sequence (P10275 whole entry M750V): as the sequence (P10275 whole entry T878A/S889G) above, with M750V, A878T, G889S counted along it
T3 sequence (P10275 whole entry S889G): as the sequence (P10275 whole entry T878A/S889G) above, with A878T counted along it

COc1cc(O[C@H]2C(C)(C)[C@H](NC(=O)c3ccc(N4CCC(CN5CCN(c6ccc(C(=O)N[C@H]7CCC(=O)NC7=O)c(F)c6)CC5)CC4)cc3)C2(C)C)ccc1C#N [Compound A, 4-(4-((1-(4-(((1R,3R)-3-(4-cyano-3-methoxyphenoxy)-2,2,4,4-tetramethylcyclobutyl)carbamoyl)phenyl)piperidin-4-yl)methyl)piperazin-1-yl)-N—((S)-2,6-dioxopiperidin-3-yl)-2-fluorobenzamide]
binding to AR, % of positive control testosterone (AR [1]): 98.6%
DC50 (AR T878A/S889G): 3.6 nM
antiproliferative effects vs enzalutamide (VCaP cells): more potent antiproliferative effects than enzalutamide
DC50 (AR S889G): 3.1 nM
ubiquitination of the AR (AR [2]): significantly increased
AR reduced on average vs vehicle control (AR [3]; single PO dose 0.03 mg/kg, 16 hours): 14%
AR reduced on average vs vehicle control (AR [3]; single PO dose 0.1 mg/kg, 16 hours): -5%
AR reduced on average vs vehicle control (AR [3]; single PO dose 0.3 mg/kg, 16 hours): 73%
AR reduced on average vs vehicle control (AR [3]; single PO dose 1 mg/kg, 16 hours): 81%
AR reduced on average vs vehicle control (AR [3]; single PO dose 3 mg/kg, 16 hours): 91%
AR reduced on average vs vehicle control (AR [3]; single PO dose 10 mg/kg, tumors 16 hours post-dose): 96%
plasma PSA levels vs enzalutamide (PSA; 3 mg/kg and 10 mg/kg vs 20 mg/kg enzalutamide): reduced PSA levels more robustly than 20 mg/kg of enzalutamide
plasma PSA levels (PSA; all 3 doses (10, 3, 1 mg/kg/day), tumor-bearing intact mice): reduced PSA levels in a dose-dependent manner
DC50 (AR M750V): 1.4 nM
